Literature values, collected in US20210319872A1, “DRUG AND DEVICE COMBINATION PRODUCTS WITH IMPROVED SAFETY AND EFFICACY PROFILES” (priority 2016, published 2021).
Where two headings read alike, the source gives them in different places.

What was measured:
subjects = details: 16 subjects after 15-mg dose, pilot and main studies, FIG. 31 B
[1] = older adults
[2] = patients who had been started on the drug

In the case of `COc1ccc2c3c1O[C@H]1C(=O)CC[C@@]4(O)[C@@H](C2)N(C)CC[C@]314` [oxycodone, reference compound], the “individual time course of pupil diameter” value (subjects) is given as “does not move into “pinpoint pupils”, overdose, or mydriasis”, the Abdominal pain (in vivo) is given as “Gastrointestinal: Abdominal pain (up to 5%), Constipation (Adults,” and the Chest pain (in vivo) is given as “Cardiovascular: Cardiac arrest, Chest pain (less than 1%), Heart”. For the same compound, the Fever (in vivo) was “Other: Fever (Adults, up to 5%; pediatrics, 11%)”, the Headache (in vivo) was “(Adults, 3% or greater; pediatrics, 14%), Somnolence (controlled-” and the Heart failure (in vivo) was “failure (less than 3%), Hypotension (less than 3%), Shock, ST”. For the same compound, the Hypersensitivity reaction (in vivo) was “Immunologic: Hypersensitivity reaction (less than 3%)”, the Hypotension (in vivo) was “failure (less than 3%), Hypotension (less than 3%), Shock, ST” and the Opioid withdrawal (in vivo) was “Opioid withdrawal (1% to 5%)”. For the same compound, the ST segment depression (in vivo) was “segment depression (less than 1%), Syncope (less than 1%)”, the “Serious side effect, Gastrointestinal” value (in vivo) was “Gastrointestinal: Bowel obstruction, Diverticulitis, Exacerbation” and the “Serious side effect, Other” value (in vivo) was “Other: Drug withdrawal syndrome in neonate of dependent mother,”. For the same compound, the “Serious side effect, Respiratory” value (in vivo) was “Respiratory: Respiratory depression”, the Somnolence (in vivo) was “release, 23%; immediate-release, 3% or greater)” and the Sweating (in vivo) was “(controlled-release, 5%; immediate-release, less than 3%)”. The Syncope (in vivo) was “segment depression (less than 1%), Syncope (less than 1%)”.

In the case of `[Li]` [lithium], the clearance rate [1] is listed as “reduced”.

For `CC[C@H]1OC(=O)[C@H](C)[C@@H](O[C@H]2C[C@@](C)(OC)[C@@H](O)[C@H](C)O2)[C@H](C)[C@@H](O[C@@H]2O[C@H](C)C[C@H](N(C)C)[C@H]2O)[C@](C)(OC)C[C@@H](C)C(=O)[C@H](C)[C@@H](O)[C@]1(C)O` [clarithromycin], the “Digoxin toxicity, times more likely” value [2] is listed as 12 times.

In the case of `COc1ccc2c3c1O[C@H]1[C@@H](O)C=C[C@H]4[C@@H](C2)N(C)CC[C@@]341` [Codeine], the “Common side effect, Gastrointestinal” value (in vivo) is listed as “Gastrointestinal: Constipation, Nausea, Vomiting”, the “Common side effect, Neurologic” value (in vivo) is listed as “Neurologic: Dizziness, Lightheadedness, Sedated, Somnolence” and the “Common side effect, Respiratory” value (in vivo) is listed as “Respiratory: Dyspnea”. For the same compound, the “Serious side effect, Cardiovascular” value (in vivo) was “Cardiovascular: Hypotension”, the “Serious side effect, Gastrointestinal” value (in vivo) was “Gastrointestinal: Bowel obstruction, Pancreatitis” and the “Serious side effect, Neurologic” value (in vivo) was “Neurologic: CSF pressure: raised, Seizure”. The “Serious side effect, Respiratory” value (in vivo) was “Respiratory: Respiratory depression”.

In the case of `CCN(C(C)=O)c1cccc(-c2ccnc3c(C#N)cnn23)c1` [Sonata (zaleplon)], the Anaphylaxis (in vivo) is given as “Immunologic: Anaphylaxis (rare)”, the Angioedema (in vivo) is given as “Other: Angioedema (rare)” and the Depression (in vivo) is given as “Depression (at least 1%), Suicidal behavior, Suicidal thoughts”. The Dizziness (in vivo) was “Neurologic: Dizziness (7% to 9%), Headache (30% to 42%)”, the Drug withdrawal seizure (in vivo) was “Neurologic: Drug withdrawal seizure (rare)” and the Headache (in vivo) was “Neurologic: Dizziness (7% to 9%), Headache (30% to 42%)”.

In the case of `COc1ccc(C(CN(C)C)C2(O)CCCCC2)cc1` (centres unmarked) [Venlafaxine (Effexor)], the Abnormal ejaculation (in vivo) is given as “Reproductive: Abnormal ejaculation (2.2% to 19%), Erectile”, the Asthenia (in vivo) is given as “Neurologic: Asthenia (8% to 19%), Dizziness (11% to 23.9%),” and the Dizziness (in vivo) is given as “Neurologic: Asthenia (8% to 19%), Dizziness (11% to 23.9%),”. The Dream disorder (in vivo) was “Dream disorder (3% to 7%), Headache (25% to 38%), Insomnia”, the Erectile dysfunction (in vivo) was “dysfunction (2.1% to 6%), Orgasm disorder (2% to 5%)” and the Feeling nervous (in vivo) was “Psychiatric: Feeling nervous (4% to 21.3%)”. The Headache (in vivo) was “Dream disorder (3% to 7%), Headache (25% to 38%), Insomnia”, the Hypertension (in vivo) was “Cardiovascular: Hypertension (3% to 13%)” and the Nausea (in vivo) was 22%), Nausea (21% to 58%), Xerostomia (12% to 22%). The Orgasm disorder (in vivo) was “dysfunction (2.1% to 6%), Orgasm disorder (2% to 5%)”, the Seizure (in vivo) was “Neurologic: Seizure (0.3%)” and the Sweating symptom (in vivo) was “Dermatologic: Sweating symptom (6.7% to 25%)”. For the same compound, the Weight loss (in vivo) was “Endocrine metabolic: Weight loss (3% to 47%)” and the Xerostomia (in vivo) was 22%), Nausea (21% to 58%), Xerostomia (12% to 22%).

In the case of `CCCCCCCCc1ccc(CCC(N)(CO)CO)cc1` [Gilenya], the Increased liver enzymes (5 times ULN or greater (ALT, AST)) is given as “times ULN or greater (ALT, AST), 4.5%)”, the Increased liver enzymes (All elevations (ALT/GGT/AST)) is given as 15% and the Infectious disease (All infections) is given as 72%. For the same compound, the Abdominal pain (in vivo) was 11%, the Atrioventricular block (in vivo) was “Cardiovascular: Atrioventricular block (up to 4.7%),” and the Backache (in vivo) was “Musculoskeletal: Backache (10%), Pain, In Extremity (10%)”. For the same compound, the Bradyarrhythmia (in vivo) was “Bradyarrhythmia (3%.)”, the Cough (in vivo) was 12% and the Diarrhea (in vivo) was 13%. The Headache (in vivo) was “Neurologic: Headache (25%)”, the Herpesvirus infection (in vivo) was “Immunologic: Cryptococcosis, Herpesvirus infection (9%),” and the Influenza (in vivo) was “Immunologic: Influenza (11%)”. For the same compound, the “Lymphocytopenia (Severe)” value (in vivo) was “Hematologic: Lymphocytopenia (Severe) (7%)”, the “Pain, In Extremity” value (in vivo) was “Musculoskeletal: Backache (10%), Pain, In Extremity (10%)” and the Sinusitis (in vivo) was 11%. For the same compound, the “Serious side effect, Dermatologic” value (listed without frequency) was “Dermatologic: Malignant melanoma”, the “Serious side effect, Immunologic” value (listed without frequency) was “Immunologic: Cryptococcosis, Herpesvirus infection (9%),” and the “Serious side effect, Neurologic” value (listed without frequency) was “Cryptococcal meningitis”. The Infectious disease (serious infections) was 2.3% and the Increased liver enzymes (up to 3 times ULN (ALT, AST)) was 14%.
